Key:
[1] = system: mRNA expressed from the genes (A) to (D) in rat liver; assay: Behavior of genes (mRNA expression level, oligo-DNA microarray) in rat liver after 28-day oral administration; format: in vivo
Summary of the method: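 Male F344 SPF rats, 5 weeks old, four per group, dosed by oral gavage once daily for 28 days with test chemical or matched-volume solvent. Liver total RNA profiled on oligo-DNA microarray. Change ≥1.5-fold or ≤1/1.5 versus vehicle counted as significant if its direction matched that seen with other carcinogens.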

liver = settings: in vivo; cited from earlier work
rodent = settings: in vivo; cited from earlier work
[2] = gene group (A), Unigene No. Rn.167075
[3] = gene group (C), Unigene No. Rn.120914
[4] = (C), Unigene Rn.120914, defined direction +, rat liver, oral once daily 28 days

SMILES: ClC1=C(Cl)[C@]2(Cl)[C@@H]3[C@@H]4C[C@@H]([C@H]5O[C@@H]45)[C@@H]3[C@@]1(Cl)C2(Cl)Cl [TS017, Dieldrin]
- Behavior of gene caused by administration of chemical substance, Gene No. 4846 ([1]; gene group (A), Unigene No. Rn.144554): −
- Behavior of gene caused by administration of chemical substance, Gene No. 2026 [1, 2]: −
- Behavior of gene caused by administration of chemical substance, Gene No. 4218 [1, 2]: −
- Behavior of gene caused by administration of chemical substance, Gene No. 6182 ([1]; gene group (A), Unigene No. Rn.5834): +
- Behavior of gene caused by administration of chemical substance, Gene No. 5600 ([1]; gene group (A), Unigene No. Rn.9836): −
- Behavior of gene caused by administration of chemical substance, Gene No. 1494 ([1]; gene group (B), Unigene No. Rn.1430): +
- Behavior of gene caused by administration of chemical substance, Gene No. 2045 ([1]; gene group (B), Unigene No. Rn.19329): +
- Behavior of gene caused by administration of chemical substance, Gene No. 2203 ([1]; gene group (B), Unigene No. Rn.21240): +
- Behavior of gene caused by administration of chemical substance, Gene No. 533 ([1]; gene group (C), Unigene No. Rn.106184): +
- Behavior of gene caused by administration of chemical substance, Gene No. 725 ([1]; gene group (C), Unigene No. Rn.108075): −
- Behavior of gene caused by administration of chemical substance, Gene No. 1163 ([1]; gene group (C), Unigene No. Rn.11766): −
- Behavior of gene caused by administration of chemical substance, Gene No. 4973 ([1]; gene group (C), Unigene No. Rn.118529): −
- Behavior of gene caused by administration of chemical substance, Gene No. 4095 ([1]; gene group (C), Unigene No. Rn.119024): −
- Behavior of gene caused by administration of chemical substance, Gene No. 1334 [1, 3]: −
- Behavior of gene caused by administration of chemical substance, Gene No. 6620 [1, 3]: −
- Behavior of gene caused by administration of chemical substance, Gene No. 6303 ([1]; gene group (C), Unigene No. Rn.123063): −
- Behavior of gene caused by administration of chemical substance, Gene No. 5878 ([1]; gene group (C), Unigene No. Rn.143213): −
- Behavior of gene caused by administration of chemical substance, Gene No. 1131 ([1]; gene group (C), Unigene No. Rn.144946): −
- Behavior of gene caused by administration of chemical substance, Gene No. 1562 ([1]; gene group (C), Unigene No. Rn.14744): −
- Behavior of gene caused by administration of chemical substance, Gene No. 1741 ([1]; gene group (C), Unigene No. Rn.1647): −
- Behavior of gene caused by administration of chemical substance, Gene No. 893 ([1]; gene group (C), Unigene No. Rn.164817): −
- Behavior of gene caused by administration of chemical substance, Gene No. 6026 ([1]; gene group (C), Unigene No. Rn.167685): −
- Behavior of gene caused by administration of chemical substance, Gene No. 154 ([1]; gene group (C), Unigene No. Rn.185941): −
- Behavior of gene caused by administration of chemical substance, Gene No. 1993 ([1]; gene group (C), Unigene No. Rn.18728): −
- Behavior of gene caused by administration of chemical substance, Gene No. 813 ([1]; gene group (C), Unigene No. Rn.201760): −
- Behavior of gene caused by administration of chemical substance, Gene No. 2494 ([1]; gene group (C), Unigene No. Rn.23969): −
- Behavior of gene caused by administration of chemical substance, Gene No. 2546 ([1]; gene group (C), Unigene No. Rn.24561): −
- Behavior of gene caused by administration of chemical substance, Gene No. 3776 ([1]; gene group (C), Unigene No. Rn.43232): −
- Behavior of gene caused by administration of chemical substance, Gene No. 3929 ([1]; gene group (C), Unigene No. Rn.4620): −
- Behavior of gene caused by administration of chemical substance, Gene No. 1119 ([1]; gene group (C), Unigene No. Rn.9757): −
- Behavior of gene caused by administration of chemical substance, Gene No. 6742 ([1]; gene group (C), Unigene No. Rn.9779): −
- Behavior of gene caused by administration of chemical substance, Gene No. 5634 ([1]; gene group (C), Unigene No. Rn.9862): −
- Behavior of gene caused by administration of chemical substance, Gene No. 5726 ([1]; gene group (D), Unigene No. Rn.9939): −
- Liver carcinogenicity (liver): Cr−
- Carcinogenicity (rodent): C+

SMILES: CCOC(N)=O [TS054, Urethane]
- Behavior of gene caused by administration of chemical substance, Gene No. 4846 ([1]; (A), Unigene Rn.144554, defined direction +, rat liver, oral once daily 28 days): +
- Behavior of gene caused by administration of chemical substance, Gene No. 4218 ([1]; (A), Unigene Rn.167075, defined direction +, rat liver, oral once daily 28 days, significant = 1.5 times or more or 1/1.5 or less of control): −
- Behavior of gene caused by administration of chemical substance, Gene No. 2026 ([1]; (A), Unigene Rn.167075, defined direction −, rat liver, oral once daily 28 days): −
- Behavior of gene caused by administration of chemical substance, Gene No. 6182 ([1]; (A), Unigene Rn.5834, defined direction +, rat liver, oral once daily 28 days): +
- Behavior of gene caused by administration of chemical substance, Gene No. 5600 ([1]; (A), Unigene Rn.9836, defined direction +, rat liver, oral once daily 28 days): −
- Behavior of gene caused by administration of chemical substance, Gene No. 1494 ([1]; (B), Unigene Rn.1430, defined direction −, rat liver, oral once daily 28 days): −
- Behavior of gene caused by administration of chemical substance, Gene No. 2045 ([1]; (B), Unigene Rn.19329, defined direction +, rat liver, oral once daily 28 days): −
- Behavior of gene caused by administration of chemical substance, Gene No. 2203 ([1]; (B), Unigene Rn.21240, defined direction +, rat liver, oral once daily 28 days): −
- Behavior of gene caused by administration of chemical substance, Gene No. 533 ([1]; (C), Unigene Rn.106184, defined direction +, rat liver, oral once daily 28 days): −
- Behavior of gene caused by administration of chemical substance, Gene No. 725 ([1]; (C), Unigene Rn.108075, defined direction −, rat liver, oral once daily 28 days): −
- Behavior of gene caused by administration of chemical substance, Gene No. 1163 ([1]; (C), Unigene Rn.11766, defined direction +, rat liver, oral once daily 28 days): −
- Behavior of gene caused by administration of chemical substance, Gene No. 4973 ([1]; (C), Unigene Rn.118529, defined direction −, rat liver, oral once daily 28 days): −
- Behavior of gene caused by administration of chemical substance, Gene No. 4095 ([1]; (C), Unigene Rn.119024, defined direction −, rat liver, oral once daily 28 days): −
- Behavior of gene caused by administration of chemical substance, Gene No. 1334 [1, 4]: −
- Behavior of gene caused by administration of chemical substance, Gene No. 6620 [1, 4]: −
- Behavior of gene caused by administration of chemical substance, Gene No. 6303 ([1]; (C), Unigene Rn.123063, defined direction −, rat liver, oral once daily 28 days): −
- Behavior of gene caused by administration of chemical substance, Gene No. 5878 ([1]; (C), Unigene Rn.143213, defined direction −, rat liver, oral once daily 28 days): −
- Behavior of gene caused by administration of chemical substance, Gene No. 1131 ([1]; (C), Unigene Rn.144946, defined direction −, rat liver, oral once daily 28 days): −
- Behavior of gene caused by administration of chemical substance, Gene No. 1562 ([1]; (C), Unigene Rn.14744, defined direction −, rat liver, oral once daily 28 days): −
- Behavior of gene caused by administration of chemical substance, Gene No. 1741 ([1]; (C), Unigene Rn.1647, defined direction −, rat liver, oral once daily 28 days): −
- Behavior of gene caused by administration of chemical substance, Gene No. 893 ([1]; (C), Unigene Rn.164817, defined direction +, rat liver, oral once daily 28 days): −
- Behavior of gene caused by administration of chemical substance, Gene No. 6026 ([1]; (C), Unigene Rn.167685, defined direction −, rat liver, oral once daily 28 days): −
- Behavior of gene caused by administration of chemical substance, Gene No. 154 ([1]; (C), Unigene Rn.185941, defined direction −, rat liver, oral once daily 28 days): −
- Behavior of gene caused by administration of chemical substance, Gene No. 1993 ([1]; (C), Unigene Rn.18728, defined direction −, rat liver, oral once daily 28 days): −
- Behavior of gene caused by administration of chemical substance, Gene No. 813 ([1]; (C), Unigene Rn.201760, defined direction +, rat liver, oral once daily 28 days): −
- Behavior of gene caused by administration of chemical substance, Gene No. 2494 ([1]; (C), Unigene Rn.23969, defined direction +, rat liver, oral once daily 28 days): −
- Behavior of gene caused by administration of chemical substance, Gene No. 2546 ([1]; (C), Unigene Rn.24561, defined direction −, rat liver, oral once daily 28 days): −
- Behavior of gene caused by administration of chemical substance, Gene No. 3776 ([1]; (C), Unigene Rn.43232, defined direction −, rat liver, oral once daily 28 days): −
- Behavior of gene caused by administration of chemical substance, Gene No. 3929 ([1]; (C), Unigene Rn.4620, defined direction +, rat liver, oral once daily 28 days): −
- Behavior of gene caused by administration of chemical substance, Gene No. 1119 ([1]; (C), Unigene Rn.9757, defined direction +, rat liver, oral once daily 28 days): −
- Behavior of gene caused by administration of chemical substance, Gene No. 6742 ([1]; (C), Unigene Rn.9779, defined direction +, rat liver, oral once daily 28 days): −
- Behavior of gene caused by administration of chemical substance, Gene No. 5634 ([1]; (C), Unigene Rn.9862, defined direction −, rat liver, oral once daily 28 days): −
- Behavior of gene caused by administration of chemical substance, Gene No. 5726 ([1]; (D), Unigene Rn.9939, defined direction −, rat liver, oral once daily 28 days): +
- Liver carcinogenicity (liver): Cr+
- Carcinogenicity (rodent): C+
